Results taken from the NIST ThermoML archive (doi:10.1016/j.fluid.2007.07.016).
± gives the expanded uncertainty stated by the source.

Assay: xn = mol fraction of the nth substance listed
Details: 101 kPa, Liquid; for viscosity: Capillary tube (Ostwald / Ubbelohde) method; for speed of sound: Linear variable-path acoustic interferometer

Cc1ccc(C)cc1 [1,4-dimethylbenzene] + C1CCOC1
Details	speed of sound, 288.15 K [m/s]	speed of sound, 298.15 K [m/s]	speed of sound, 308.15 K [m/s]	speed of sound, 318.15 K [m/s]	viscosity, 288.15 K [mPa·s]	viscosity, 298.15 K [mPa·s]	viscosity, 308.15 K [mPa·s]	viscosity, 318.15 K [mPa·s]
x2 = 0	1357.5 ± 1.6	1316.4 ± 1.6	1268 ± 1.6	1230.3 ± 1.5	0.7084 ± 0.0051	0.611 ± 0.0045	0.5501 ± 0.004	0.4912 ± 0.0037
x2 = 0.084	1356 ± 1.6	1314.1 ± 1.6	1265.7 ± 1.6	1227.2 ± 1.5	0.6971 ± 0.005	0.6047 ± 0.0044	0.5453 ± 0.004	0.4891 ± 0.0037
x2 = 0.1716	1354.2 ± 1.6	1311.7 ± 1.6	1263.2 ± 1.6	1224 ± 1.5	0.6842 ± 0.0049	0.5954 ± 0.0044	0.5385 ± 0.0039	0.4849 ± 0.0036
x2 = 0.2322	1353.1 ± 1.6	1310.1 ± 1.6	1261.6 ± 1.6	1221.9 ± 1.5	0.6755 ± 0.0049	0.5895 ± 0.0043	0.5339 ± 0.0039	0.4819 ± 0.0036
x2 = 0.2934	1351.7 ± 1.6	1308.3 ± 1.6	1259.9 ± 1.6	1219.6 ± 1.5	0.6656 ± 0.0048	0.5825 ± 0.0043	0.528 ± 0.0039	0.4777 ± 0.0036
x2 = 0.3548	1350.2 ± 1.6	1306.5 ± 1.6	1258.1 ± 1.6	1217.3 ± 1.5	0.6552 ± 0.0047	0.5748 ± 0.0042	0.5214 ± 0.0038	0.4727 ± 0.0036
x2 = 0.4284	1348.1 ± 1.6	1304 ± 1.6	1255.7 ± 1.6	1214.5 ± 1.5	0.642 ± 0.0046	0.5648 ± 0.0042	0.5127 ± 0.0038	0.4658 ± 0.0035
x2 = 0.4896	1346.2 ± 1.6	1301.8 ± 1.6	1253.7 ± 1.6	1212 ± 1.5	0.6304 ± 0.0046	0.5558 ± 0.0041	0.5047 ± 0.0037	0.4592 ± 0.0035
x2 = 0.5518	1344.1 ± 1.6	1299.4 ± 1.6	1251.5 ± 1.6	1209.3 ± 1.5	0.6181 ± 0.0045	0.5461 ± 0.004	0.4959 ± 0.0037	0.4518 ± 0.0035
x2 = 0.6201	1341.5 ± 1.6	1296.6 ± 1.6	1248.8 ± 1.6	1206.2 ± 1.5	0.6039 ± 0.0044	0.5347 ± 0.004	0.4854 ± 0.0036	0.4428 ± 0.0034
x2 = 0.6825	1338.9 ± 1.6	1293.7 ± 1.6	1246.2 ± 1.6	1203.3 ± 1.5	0.5904 ± 0.0043	0.5237 ± 0.0039	0.4751 ± 0.0036	0.4337 ± 0.0034
x2 = 0.7414	1336.3 ± 1.6	1290.9 ± 1.6	1243.6 ± 1.6	1200.4 ± 1.5	0.5767 ± 0.0042	0.5127 ± 0.0038	0.4647 ± 0.0035	0.4245 ± 0.0033
x2 = 0.8102	1333.1 ± 1.6	1287.6 ± 1.6	1240.6 ± 1.6	1197 ± 1.5	0.5609 ± 0.0041	0.4991 ± 0.0038	0.4518 ± 0.0035	0.4128 ± 0.0033
x2 = 0.8756	1329.8 ± 1.6	1284.3 ± 1.6	1237.5 ± 1.6	1193.7 ± 1.5	0.545 ± 0.004	0.4855 ± 0.0037	0.4388 ± 0.0034	0.4009 ± 0.0032
x2 = 0.9409	1326.4 ± 1.6	1280.8 ± 1.6	1234.4 ± 1.6	1190.4 ± 1.5	0.5284 ± 0.0039	0.4713 ± 0.0036	0.425 ± 0.0034	0.3881 ± 0.0032

C1CCOC1 [tetrahydrofuran] + Cc1ccccc1
Details	speed of sound, 288.15 K [m/s]	speed of sound, 298.15 K [m/s]	speed of sound, 308.15 K [m/s]	speed of sound, 318.15 K [m/s]	viscosity, 288.15 K [mPa·s]	viscosity, 298.15 K [mPa·s]	viscosity, 308.15 K [mPa·s]	viscosity, 318.15 K [mPa·s]
x1 = 0.0718	1357.7 ± 1.6	1309.4 ± 1.6	1264.6 ± 1.5	1219.3 ± 1.5	0.6406 ± 0.0046	0.5513 ± 0.004	0.5013 ± 0.0037	0.4399 ± 0.0035
x1 = 0.1498	1356.3 ± 1.6	1307.9 ± 1.6	1262.7 ± 1.5	1217.3 ± 1.5	0.635 ± 0.0046	0.5491 ± 0.004	0.5003 ± 0.0037	0.4415 ± 0.0035
x1 = 0.2283	1354.6 ± 1.6	1306.2 ± 1.6	1260.7 ± 1.5	1215.2 ± 1.5	0.6285 ± 0.0046	0.5459 ± 0.004	0.498 ± 0.0037	0.4421 ± 0.0034
x1 = 0.2902	1353.1 ± 1.6	1304.8 ± 1.6	1259.1 ± 1.5	1213.5 ± 1.5	0.6231 ± 0.0045	0.5431 ± 0.004	0.4956 ± 0.0037	0.4418 ± 0.0034
x1 = 0.3452	1351.7 ± 1.6	1303.4 ± 1.6	1257.6 ± 1.5	1212 ± 1.5	0.6176 ± 0.0045	0.5398 ± 0.004	0.4929 ± 0.0036	0.4408 ± 0.0034
x1 = 0.4005	1350.1 ± 1.6	1302 ± 1.6	1255.9 ± 1.5	1210.4 ± 1.5	0.6113 ± 0.0044	0.5357 ± 0.0039	0.4894 ± 0.0036	0.4388 ± 0.0034
x1 = 0.4694	1347.8 ± 1.6	1299.9 ± 1.6	1253.7 ± 1.6	1208.2 ± 1.5	0.6027 ± 0.0044	0.5298 ± 0.0039	0.484 ± 0.0036	0.4352 ± 0.0034
x1 = 0.5368	1345.4 ± 1.6	1297.7 ± 1.6	1251.4 ± 1.6	1205.9 ± 1.5	0.5934 ± 0.0043	0.523 ± 0.0039	0.4775 ± 0.0036	0.4307 ± 0.0034
x1 = 0.6067	1342.8 ± 1.6	1295.2 ± 1.6	1248.8 ± 1.6	1203.4 ± 1.5	0.5834 ± 0.0043	0.5155 ± 0.0038	0.4704 ± 0.0035	0.4253 ± 0.0033
x1 = 0.6704	1340.1 ± 1.6	1292.8 ± 1.6	1246.3 ± 1.6	1200.9 ± 1.5	0.5736 ± 0.0042	0.508 ± 0.0038	0.463 ± 0.0035	0.4196 ± 0.0033
x1 = 0.7378	1337 ± 1.6	1289.9 ± 1.6	1243.5 ± 1.6	1198.3 ± 1.5	0.5626 ± 0.0041	0.4993 ± 0.0037	0.4544 ± 0.0035	0.4125 ± 0.0033
x1 = 0.8018	1333.8 ± 1.6	1287 ± 1.6	1240.7 ± 1.6	1195.7 ± 1.5	0.5515 ± 0.0041	0.4903 ± 0.0037	0.4453 ± 0.0034	0.405 ± 0.0032
x1 = 0.8714	1330.2 ± 1.6	1284 ± 1.6	1237.6 ± 1.6	1192.8 ± 1.5	0.5387 ± 0.004	0.4797 ± 0.0036	0.4346 ± 0.0034	0.3957 ± 0.0032
x1 = 0.9368	1326.6 ± 1.6	1280.7 ± 1.6	1234.5 ± 1.6	1190 ± 1.5	0.5259 ± 0.0039	0.469 ± 0.0036	0.4237 ± 0.0033	0.3861 ± 0.0032
x1 = 1	1323.1 ± 1.6	1277.6 ± 1.6	1231.5 ± 1.6	1187.2 ± 1.5	0.5129 ± 0.0039	0.458 ± 0.0036	0.4125 ± 0.0033	0.3762 ± 0.0031

C1CCOC1 [tetrahydrofuran] + c1ccccc1
Details	speed of sound, 288.15 K [m/s]	speed of sound, 298.15 K [m/s]	speed of sound, 308.15 K [m/s]	speed of sound, 318.15 K [m/s]	viscosity, 288.15 K [mPa·s]	viscosity, 298.15 K [mPa·s]	viscosity, 308.15 K [mPa·s]	viscosity, 318.15 K [mPa·s]
x1 = 0.0754	1351.7 ± 1.6	1302.5 ± 1.6	1256 ± 1.5	1206.1 ± 1.5	0.6847 ± 0.0049	0.5973 ± 0.0043	0.536 ± 0.0039	0.4667 ± 0.0036
x1 = 0.1518	1350.7 ± 1.6	1301.4 ± 1.6	1254.7 ± 1.5	1205.1 ± 1.5	0.6762 ± 0.0048	0.5921 ± 0.0043	0.533 ± 0.0039	0.4665 ± 0.0036
x1 = 0.223	1349.8 ± 1.6	1300.6 ± 1.6	1253.6 ± 1.5	1204.3 ± 1.5	0.6673 ± 0.0047	0.5863 ± 0.0042	0.529 ± 0.0039	0.4659 ± 0.0036
x1 = 0.2962	1348.5 ± 1.6	1299.3 ± 1.6	1252.2 ± 1.5	1203.2 ± 1.5	0.6573 ± 0.0047	0.5793 ± 0.0042	0.5237 ± 0.0038	0.4637 ± 0.0036
x1 = 0.3556	1347.4 ± 1.6	1298.4 ± 1.6	1251.3 ± 1.6	1202.5 ± 1.5	0.6484 ± 0.0046	0.5728 ± 0.0042	0.5186 ± 0.0038	0.4609 ± 0.0035
x1 = 0.4128	1346.3 ± 1.6	1297.5 ± 1.6	1250.3 ± 1.6	1201.8 ± 1.5	0.6394 ± 0.0046	0.5659 ± 0.0041	0.5128 ± 0.0038	0.4574 ± 0.0035
x1 = 0.4812	1344.6 ± 1.6	1296 ± 1.6	1248.8 ± 1.6	1200.7 ± 1.5	0.6277 ± 0.0045	0.5568 ± 0.0041	0.505 ± 0.0037	0.4522 ± 0.0035
x1 = 0.5506	1342.7 ± 1.6	1294.3 ± 1.6	1247.1 ± 1.6	1199.4 ± 1.5	0.6151 ± 0.0044	0.5467 ± 0.004	0.4961 ± 0.0037	0.4457 ± 0.0035
x1 = 0.6219	1340.5 ± 1.6	1292.4 ± 1.6	1245.1 ± 1.6	1197.8 ± 1.5	0.6013 ± 0.0043	0.5353 ± 0.0039	0.4858 ± 0.0036	0.4379 ± 0.0034
x1 = 0.6884	1338 ± 1.6	1290.2 ± 1.6	1243 ± 1.6	1196.1 ± 1.5	0.5875 ± 0.0043	0.5237 ± 0.0039	0.4752 ± 0.0036	0.4295 ± 0.0034
x1 = 0.7512	1335.3 ± 1.6	1287.9 ± 1.6	1240.8 ± 1.6	1194.4 ± 1.5	0.5739 ± 0.0042	0.512 ± 0.0038	0.4643 ± 0.0035	0.4207 ± 0.0033
x1 = 0.8119	1332.7 ± 1.6	1285.5 ± 1.6	1238.6 ± 1.6	1192.7 ± 1.5	0.56 ± 0.0041	0.4999 ± 0.0038	0.4529 ± 0.0035	0.4112 ± 0.0033
x1 = 0.8792	1329.3 ± 1.6	1282.7 ± 1.6	1236.1 ± 1.6	1190.7 ± 1.5	0.5439 ± 0.004	0.4857 ± 0.0037	0.4394 ± 0.0034	0.3996 ± 0.0032
x1 = 0.9388	1326.3 ± 1.6	1280.1 ± 1.6	1233.8 ± 1.6	1188.9 ± 1.5	0.5289 ± 0.0039	0.4724 ± 0.0036	0.4265 ± 0.0034	0.3885 ± 0.0032
x1 = 1	1323.1 ± 1.6	1277.6 ± 1.6	1231.5 ± 1.6	1187.2 ± 1.5	0.5129 ± 0.0039	0.458 ± 0.0036	0.4125 ± 0.0033	0.3762 ± 0.0031
